# Source: US10851082B2, “Substituted aromatic n-heterocyclic compounds as inhibitors of mitogen-activated protein kinase interacting kinase 1 (MNK1) and 2 (MNK2)” (Northwestern University, priority 2015, dated 2020)
# pIC50: −log10 of the molar value. Read-outs that look alike come from different tables or passages of the source.
# Experiments:
# [1] = target: Mnk1; test: Cellular inhibition of Mnk1, flow cytometry of phospho-eIF-4E (Ser209), U937 cells; assay type: cell-based; settings: read-out: U937 pEIF4E cellular flow IC50 (+,++,+++), flow cytometry
# Method: (§1) To evaluate inhibition of Mnk1 in cells, we utilized a flow cytometry-based assay based on activation of eIF-4E, the downstream target of Mnk1. The assay utilizes flow cytometry to quantitatively measure the amount of eIF-4E that is phosphorylated at residue Ser209 in cell lysate from U937 or MV4-11 cell lines. Cells grown in the presence of serum were treated with vehicle or test compounds across a range of concentrations. Levels of phospho-eIF-4E were measured and IC50 values were determined by logistic regression to quantify the potency of each compound.
# [2] = target: Mnk1; test: Cellular inhibition of Mnk1, flow cytometry of phospho-eIF-4E (Ser209), MV4-11 cells; assay type: cell-based; settings: read-out: MV4-11 pEIF4E cellular flow IC50 (+,++,+++), flow cytometry
# Method: as §1
# [3] = target: Mnk2 (Homo sapiens (Human), UniProt Q9HBH9); test: Mnk2 kinase inhibition, ADP-Glo ADP monitoring assay; assay type: biochemical
# Method: (§2) The synthesized compounds then were tested for inhibition of the kinase activity (IC50) of Mnk1 and/or Mnk2 using the ADP monitoring assay for kinases described in Zegzouti, H.; Zdanovskaia, M.; Hsiao, K.; Goueli, S. A., ADP-Glo: A Bioluminescent and homogeneous ADP monitoring assay for kinases.
# [4] = target: Mnk1 (Homo sapiens (Human), UniProt Q9BUB5); test: Mnk1 kinase inhibition, ADP-Glo ADP monitoring assay; assay type: biochemical
# Method: as §2
# [5] = ADP-Glo kinase assay, read-out: Mnk2 inhibition IC50 (+,++,+++)
# [6] = read-out: Mnk1 inhibition IC50 (+,++,+++)
# [7] = ADP-Glo kinase assay, unit inferred, read-out: Mnk2 IC50
# [8] = unit inferred, read-out: Mnk1 IC50
# [9] = ADP-Glo kinase assay, read-out: Mnk2 IC50
# Chain of Mnk2 (Q9HBH9 whole entry): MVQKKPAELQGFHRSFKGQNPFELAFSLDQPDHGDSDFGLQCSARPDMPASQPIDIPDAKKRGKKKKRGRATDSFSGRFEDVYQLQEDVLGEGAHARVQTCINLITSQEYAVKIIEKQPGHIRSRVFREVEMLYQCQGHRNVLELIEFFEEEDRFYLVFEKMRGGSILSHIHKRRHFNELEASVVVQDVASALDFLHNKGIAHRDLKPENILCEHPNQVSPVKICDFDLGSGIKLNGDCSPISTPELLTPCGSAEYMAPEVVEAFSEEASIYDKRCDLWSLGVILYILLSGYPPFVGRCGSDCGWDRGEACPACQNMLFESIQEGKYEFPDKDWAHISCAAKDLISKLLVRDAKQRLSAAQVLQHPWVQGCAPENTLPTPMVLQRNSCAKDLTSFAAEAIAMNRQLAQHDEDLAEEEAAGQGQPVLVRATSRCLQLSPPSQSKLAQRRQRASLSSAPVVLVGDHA
# Chain of Mnk1 (Homo sapiens (Human), UniProt Q9BUB5) (Q9BUB5 whole entry): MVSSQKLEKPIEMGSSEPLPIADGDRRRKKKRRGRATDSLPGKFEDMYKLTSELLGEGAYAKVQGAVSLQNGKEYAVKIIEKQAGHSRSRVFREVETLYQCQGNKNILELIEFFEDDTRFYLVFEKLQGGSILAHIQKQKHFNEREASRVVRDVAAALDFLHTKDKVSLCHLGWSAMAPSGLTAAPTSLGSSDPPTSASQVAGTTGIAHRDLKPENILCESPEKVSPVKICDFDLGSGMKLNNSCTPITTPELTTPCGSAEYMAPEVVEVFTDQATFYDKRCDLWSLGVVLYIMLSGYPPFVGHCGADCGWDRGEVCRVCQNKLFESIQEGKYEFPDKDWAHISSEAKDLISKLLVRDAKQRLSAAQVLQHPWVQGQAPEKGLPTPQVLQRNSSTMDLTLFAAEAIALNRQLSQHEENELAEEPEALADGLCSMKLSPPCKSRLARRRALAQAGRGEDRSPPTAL
Compound,"pIC50 [3, 5]","pIC50 [4, 6]",further results
"N#Cc1cnc(OC2CC(N)C2)nc1-n1cnc2ccccc21 (stereo not shown) [NUCC-0200907, 2-(3-aminocyclobutoxy)-4-(1H-benzo[d]imidazol-1-yl)pyrimidine-5-carbonitrile]",> 6.00,> 6.00,pIC50 [1]: > 6.00; pIC50 [2]: > 6.00
N#Cc1cnc(OC2CCNC2)nc1-n1cnc2ccccc21 (stereo not shown) [NUCC-0200793],> 6.00,> 6.00,pIC50 [1]: > 6.00; pIC50 [2]: > 6.00
N#Cc1cnc(OC2CCOC2)nc1-n1cnc2ccccc21 (stereo not shown) [NUCC-0200792],> 6.00,> 6.00,pIC50 [1]: > 6.00; pIC50 [2]: > 6.00
"Clc1cnc(OCCc2ccncc2)nc1-n1cnc2ccccc21 [NUCC-0196254, 1-(5-chloro-2-(2-(pyridin-4-yl)ethoxy)pyrimidin-4-yl)-1H-benzo[d]imidazole]",> 6.00,> 6.00,"pIC50 [2]: > 6.00; pIC50 [3, 7]: 8.02; pIC50 [4, 8]: 7.27"
N#Cc1cnc(NCCc2ccncc2)nc1-n1ccnc1 [NUCC-0196308],–,–,"pIC50 [3, 7]: 5.16; pIC50 [4, 8]: 5.68"
COc1cccc(-c2cn(-c3ccnc(NCCc4c[nH]cn4)n3)c3ccccc23)c1 [NUCC-0125599],–,–,"pIC50 [3, 9]: 5.21; pIC50 ([4]; read-out: Mnk1 IC50): 4.54"
CC1=C(Oc2ncc(Cl)c(-n3cnc4ccccc43)n2)C(=O)C(C)O1 (stereo not shown) [NUCC-0201018],–,5.00 to 6.00,pIC50 [3]: 5.00 to 6.00
N#Cc1cnc(-n2cnc3ccccc32)nc1OCCc1ccnc(F)c1 [NUCC-0201907],> 6.00,> 6.00,–
Nc1cc(-n2cnc3ccccc32)nc(NCc2cccnc2)n1 [NUCC-0196223],–,–,"pIC50 [3, 7]: 5.74; pIC50 [4, 8]: < 5.00"
Brc1cnc(OCCc2ccncc2)nc1-n1cnc2ccccc21 [NUCC-0200789],> 6.00,> 6.00,–
CN(C)CCNc1nccc(-n2cnc3ccccc32)n1 [NUCC-0125582],–,–,"pIC50 [3, 9]: 7.32; pIC50 ([4]; read-out: Mnk1 IC50): 6.30"
Clc1cnc(NCCc2ccncc2)nc1-n1nnc2ccccc21 [NUCC-0200801],–,< 5.00,pIC50 [3]: 5.00 to 6.00
Clc1cnc(NCCc2cccnc2)nc1-n1cnc2ccccc21 [NUCC-0176357],–,–,"pIC50 [3, 9]: 6.60; pIC50 ([4]; read-out: Mnk1 IC50): 5.64"
CC(C)(COc1ncc(C#N)c(-n2cnc3ccccc32)n1)c1ccnc(F)c1 [NUCC-0201917],> 6.00,> 6.00,–
"NC1CC(Oc2nc(C3CC3)c(Cl)c(-n3cnc4ccccc43)n2)C1 (stereo not shown) [NUCC-0201915, 3-((4-(1H-benzo[d]imidazol-1-yl)-5-chloro-6-cyclopropylpyrimidin-2-yl)oxy)cyclobutanamine]",–,5.00 to 6.00,pIC50 [3]: 5.00 to 6.00
c1cnc2ncn(-c3ccnc(NCCc4ccncc4)n3)c2c1 [NUCC-0176138],–,–,"pIC50 [3, 9]: 5.22; pIC50 ([4]; read-out: Mnk1 IC50): 5.07"
Fc1cnc(NCCc2ccncc2)nc1-n1ccc2ccccc21 [NUCC-0176283],–,–,"pIC50 [3, 9]: 5.00; pIC50 ([4]; read-out: Mnk1 IC50): 5.06"
N#Cc1cnc(OC2CCc3cccnc32)nc1-n1cnc2ccccc21 (stereo not shown) [NUCC-0200905],–,< 5.00,pIC50 [3]: 5.00 to 6.00
O=C1CCCN1CCCNc1nccc(-n2cnc3ccccc32)n1 [NUCC-0176344],–,–,"pIC50 [3, 9]: 6.11; pIC50 ([4]; read-out: Mnk1 IC50): 5.14"
COC(=O)c1ccc2c(c1)ncn2-c1nc(NCCc2ccncc2)ncc1Cl [NUCC-0200799],> 6.00,5.00 to 6.00,–
O=C(Nc1cc(C(F)(F)F)cc(C(F)(F)F)c1)Nc1nccc(-n2cnc3ccccc32)n1 [NUCC-0176362],–,–,Mnk2 IC50 ([3]; ADP-Glo kinase assay): no activity; Mnk1 IC50 [4]: no activity
N#Cc1cnc(-n2cnc3ccccc32)nc1OC1CCc2cccnc21 (stereo not shown) [NUCC-0200906],> 6.00,5.00 to 6.00,–
Fc1ccc2c(ncn2-c2nc(OCCc3ccccn3)ncc2Cl)c1F [NUCC-0201662],> 6.00,> 6.00,–
NC1CC(Oc2ncc(Cl)c(-n3cnc4ccccc43)n2)C1 (stereo not shown) [NUCC-0201004],> 6.00,> 6.00,–
COc1ccc2c(c1)ncn2-c1nc(NCCc2ccncc2)ncc1Cl [NUCC-0200910],> 6.00,< 5.00,–
Cn1cc(-c2ccnc(N3CCC[C@H]3CO)n2)cn1 [NUCC-0060896],–,–,"pIC50 [3, 9]: 5.47; pIC50 ([4]; read-out: Mnk1 IC50): 5.52"

# Second part, led by results:
"pIC50 [3, 5]","pIC50 [4, 6]",Compound,further results
> 6.00,> 6.00,O=C1CCCN1CCOc1ncc(Cl)c(-n2cnc3ccccc32)n1 [NUCC-0200811],pIC50 [1]: > 6.00; pIC50 [2]: > 6.00
> 6.00,> 6.00,N#Cc1cnc(OCCN2CCCC2=O)nc1-n1cnc2ccccc21 [NUCC-0200788],pIC50 [1]: > 6.00; pIC50 [2]: > 6.00
> 6.00,> 6.00,O=C1CC(Nc2ncc(C(F)(F)F)c(-n3cnc4ccccc43)n2)CN1 (stereo not shown) [NUCC-0201890],–
–,5.00 to 6.00,Clc1cnc(NC2C3CC2C3)nc1-n1cnc2ccccc21 (stereo not shown) [NUCC-0201136],pIC50 [3]: 5.00 to 6.00
–,5.00 to 6.00,OC1CC(Nc2ncc(Cl)c(-n3cnc4ccccc43)n2)C1 (stereo not shown) [NUCC-0201003],pIC50 [3]: 5.00 to 6.00
> 6.00,> 6.00,"N#Cc1cnc(NC2C3CC2C3)nc1-n1cnc2ccccc21 (stereo not shown) [NUCC-0201137, 4-(1H-benzo[d]imidazol-1-yl)-2-(bicyclo[1.1.1]pentan-2-ylamino)pyrimidine-5-carbonitrile]",–
> 6.00,> 6.00,Clc1cnc(OCCC2CCNCC2)nc1-n1cnc2ccccc21 [NUCC-0201002],–
